The text below walks through data of the Deep4Chem optical property database.

This data set in a line: photoluminescence quantum yield (fraction); solvent given as SMILES.

`CCCCCCCCCCCCCCCCOc1cc(C#Cc2ccc3ccccc3c2-c2c(C#Cc3cc(OCCCCCCCCCCCCCCCC)c(C#Cc4ccc(C=C(C#N)C#N)cc4)cc3OCCCCCCCCCCCCCCCC)ccc3ccccc23)c(OCCCCCCCCCCCCCCCC)cc1C#Cc1ccc(C=C(C#N)C#N)cc1`: the photoluminescence quantum yield was found to be 0.63 (in Brc1ccccc1); 0.99 (in C1CCCCC1); 0.3 (in C1CCOC1); 0.94 (in C1COCCO1); 0.98 (in CCCCCC); 0.52 (in CCCCCCCCO). In addition, the photoluminescence quantum yield (in CCCCOCCCC) came to 0.97; the photoluminescence quantum yield (in CCOC(C)=O) was found to be 0.37; the photoluminescence quantum yield (in CCOCC) turned out to be 0.87; the photoluminescence quantum yield (in Cc1ccccc1) is 0.95; the photoluminescence quantum yield (in ClC(Cl)(Cl)Cl) is 0.95; the photoluminescence quantum yield (in ClC(Cl)Cl) was determined as 0.81. Also, the photoluminescence quantum yield (in ClCCl) turned out to be 0.23.
As to `COc1ccc(/C=C/c2cc(/C=C/c3ccc(OC)cc3)nc(/C=C/c3ccc(N(c4ccccc4)c4ccccc4)cc3)n2)cc1`, the photoluminescence quantum yield (in ClCCl) stood at 0.1.
For the setting “in Cc1ccccc1”, `CCCCN1C(=O)c2cccc3cccc(c23)C1=O` returned a photoluminescence quantum yield of 0.04.
For the compound `CC(C)c1cc(C(C)C)c(B2c3ccccc3Oc3cc(-n4c5ccccc5c5ccc6c(c7ccccc7n6-c6ccccc6)c54)ccc32)c(C(C)C)c1`, the photoluminescence quantum yield reads like this: (in CC(C)c1cc(C(C)C)c(-c2ccc(-n3c4ccccc4n4c5ccccc5nc34)nc2)c(C(C)C)c1) 0.506; (in O=P(c1ccccc1)(c1ccccc1)c1ccccc1Oc1ccccc1P(=O)(c1ccccc1)c1ccccc1) 0.631.
`CC(C)(C)[Si](C)(C)C#CC1=CC2=c3cc(C#C[Si](C)(C)C(C)(C)C)c4nc(C(F)(F)C(F)(F)C(F)(F)F)nc5c(C#C[Si](C)(C)C(C)(C)C)cc(c3c54)C3=CC(C#C[Si](C)(C)C(C)(C)C)=C4N=C(C(F)(F)C(F)(F)C(F)(F)F)N=C1C4C32` (centres undefined) returned a photoluminescence quantum yield (in C1CCOC1) of 0.35.
In the case of `Cc1c(C)n2c(COC(=O)CNC(=O)OC(C)(C)C)c(C)c(=O)n2c1=O`, the photoluminescence quantum yield (in CCO) stood at 0.63.
As to `COc1ccc2c3c(cccc13)C(=O)c1ccccc1-2`, the photoluminescence quantum yield is, setting by setting: (in CC#N) 0.62; (in CC(C)=O) 0.56; (in CC(C)O) 0.54; (in CCCCOCCCC) 0.01; (in CCOC(C)=O) 0.23; (in CCOCC) 0.05. In addition, the photoluminescence quantum yield (in CO) turned out to be 0.45; the photoluminescence quantum yield (in Cc1ccccc1) was 0.1; the photoluminescence quantum yield (in Clc1ccccc1) stood at 0.41; the photoluminescence quantum yield (in N#Cc1ccccc1) worked out at 0.69; the photoluminescence quantum yield (in O=C1CCCCC1) was 0.57.
In the case of `CC1=[N+]2C(=C(c3ccc4c(c3)Cc3ccccc3-4)c3ccc(C)n3[B-]2(F)F)C=C1c1cc2n(c1)[B-](F)(F)[N+]1=CC=CC1=C2c1c(C)cc(C)cc1C`, the photoluminescence quantum yield reads like this: (in C1CCCCC1) 0.65; (in CCOC(C)=O) 0.11.
Regarding `O=S1c2ccc(-c3c4ccccc4cc4ccccc34)cc2-c2cc(-c3c4ccccc4cc4ccccc34)ccc21`, the photoluminescence quantum yield is 0.31 (in C1CCCCC1), 0.14 (in CC#N) and 0.27 (in ClCCl).
The compound `COc1ccc(-c2cn3cc(C)c[n+]3[n-]2)cc1` yielded a photoluminescence quantum yield (in ClCCl) of 0.025.
The compound `CCN(CC)c1ccc2cc(-c3csc(NC(C)=O)c3C#N)c(=O)oc2c1` gave a photoluminescence quantum yield (in C1CCOC1) of 0.34, a photoluminescence quantum yield (in CS(C)=O) of 0.07 and a photoluminescence quantum yield (in ClCCl) of 0.33.
Under “in Cc1ccccc1”, `COc1ccc(-c2n[n+]3c(s2)N=C(c2ccccc2)O[B-]3(F)F)cc1` came in with a photoluminescence quantum yield of 0.16.
Take `c1ccc(-c2cc(-c3ccc4ccc5c(-c6ccnc(-c7ccccn7)c6)ccc6ccc3c4c65)ccn2)nc1`: the photoluminescence quantum yield was found to be 0.65 (in C1CCOC1); 0.56 (in CC#N); 0.56 (in CCC#N); 0.58 (in CCCC#N); 0.6 (in CCCCCC); 0.38 (in CCCO). The compound further displayed a photoluminescence quantum yield (in CCO) of 0.39, a photoluminescence quantum yield (in CO) of 0.27 and a photoluminescence quantum yield (in Cc1ccccc1) of 0.56.
